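Where inhibition never reached the appropriate level, the endpoint shown equals the highest concentration tested. Otherwise, values were interpolated linearly from a five-concentration, 48-hour dose response in 96-well plates. GI50: concentration for 50% inhibition of growth.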 Active and inactive are the calls of the source. No stated cut-off is given here; in the data, active = GI50 up to about 1.1 µM and inactive = higher.
Key:
Experiment in all cases: NCI anticancer screen, dose series, 48 h
TK-10 = test system: TK-10
MOLT-4 = test system: MOLT-4
HCT-15 = test system: HCT-15
ACHN = test system: ACHN
CAKI-1 = test system: CAKI-1
UO-31 = test system: UO-31
NCI-H23 = test system: NCI-H23
SN12C = test system: SN12C
SK-MEL-2 = test system: SK-MEL-2
LOX IMVI = test system: LOX IMVI
SW-620 = test system: SW-620
OVCAR-4 = test system: OVCAR-4
M14 = test system: M14
K562 = test system: K562
SF-268 = test system: SF-268
M19-MEL = test system: M19-MEL
SF-295 = test system: SF-295
SNB-75 = test system: SNB-75
MDA-N = test system: MDA-N
PC-3 = test system: PC-3

Structure (SMILES) | GI50 (TK-10) | GI50 (MOLT-4) | GI50 (HCT-15) | GI50 (ACHN) | GI50 (CAKI-1) | GI50 (UO-31) | GI50 (NCI-H23) | GI50 (SN12C) | GI50 (SK-MEL-2) | GI50 (LOX IMVI) | GI50 (SW-620) | GI50 (OVCAR-4) | GI50 (M14) | GI50 (K562) | GI50 (SF-268) | GI50 (M19-MEL) | GI50 (SF-295) | GI50 (SNB-75) | GI50 (MDA-N) | GI50 (PC-3)
C=CC1=C(C)/C(=C/C2=NC(=C\c3[nH]c(CC4NC(=O)C(C)/C4=C\C)c(C)c3CCC(=O)O)/C(CC(=O)O)=C2C)NC1=O (stereo not drawn) | > 100 µM (inactive) | > 100 µM (inactive) | > 100 µM | > 100 µM (inactive) | > 100 µM (inactive) | > 100 µM (inactive) | > 100 µM (inactive) | > 100 µM (inactive) | > 100 µM (inactive) | > 100 µM (inactive) | > 100 µM (inactive) | > 100 µM (inactive) | > 100 µM (inactive) | > 100 µM (inactive) | > 100 µM (inactive) | > 100 µM (inactive) | > 100 µM (inactive) | > 100 µM (inactive) | – | –
O=c1c(NO)c([N+](=O)[O-])cnn1-c1ccccc1 | 18.4 µM (inactive) | 2.39 µM (inactive) | 4.78 µM | 8.53 µM (inactive) | 5.53 µM (inactive) | 5.27 µM (inactive) | 6.55 µM (inactive) | 3.08 µM (inactive) | 14.9 µM (inactive) | 1.79 µM (inactive) | 1.75 µM (inactive) | 3.81 µM (inactive) | 1.99 µM (inactive) | 0.908 µM (active) | 12.5 µM (inactive) | 3.67 µM (inactive) | 12.2 µM (inactive) | 14.6 µM (inactive) | 2.29 µM (inactive) | 1.55 µM (inactive)
COc1cc([C@H]2c3cc4c(cc3O[C@@]3(O)COC(=O)[C@@H]23)OCO4)cc(OC)c1OC | > 100 µM (inactive) | > 100 µM (inactive) | > 100 µM | > 100 µM (inactive) | > 100 µM (inactive) | > 100 µM (inactive) | > 10 µM (inactive) | > 100 µM (inactive) | > 100 µM (inactive) | > 100 µM (inactive) | > 100 µM (inactive) | > 100 µM (inactive) | > 100 µM (inactive) | > 100 µM (inactive) | > 100 µM (inactive) | > 100 µM (inactive) | > 100 µM (inactive) | > 100 µM (inactive) | > 100 µM (inactive) | > 100 µM (inactive)
